Experimental data reported in ChEMBL document CHEMBL1137185, “Cytotoxic effects and reversal of multidrug resistance by ibogan and related indole alkaloids” (Bioorg Med Chem Lett, 2004).
Converted amounts (≈) assume the structure as drawn.

Key:
[1] = tested on: KB; experiment: Cytotoxic activity against vincristine-sensitive human oral epidermoid carcinoma cell line(KB/S); type: functional, cell-based
[2] = tested on: KB; experiment: Cytotoxic activity against vincristine-resistant human oral epidermoid carcinoma cell line (KB/VJ300); type: functional, cell-based

| Structure (SMILES) | IC50 [1] | IC50 [2] |
| --- | --- | --- |
| CCOC1[C@H]2C[C@H]([C@H](C)O)[C@@H]3N1CCc1c([nH]c4ccccc14)[C@]3(C(=O)OC)C2 (some centres not stated) | > 25 µg/mL | > 25 µg/mL |
| COC(=O)[C@@]12C[C@@H]3C[C@H]([C@@H](C)O)[C@@H]1N(CCc1c2[nH]c2ccccc12)C3 | 25 µg/mL (≈ 70.5 µM) | 3.5 µg/mL (≈ 9.87 µM) |
| CC[C@H]1C[C@H]2C[C@@]3(C(=O)OC)c4[nH]c5ccc(OC)cc5c4CCN(C2C#N)[C@@H]13 (some centres not stated) | 9.4 µg/mL (≈ 23.9 µM) | 7 µg/mL (≈ 17.8 µM) |
| COC(=O)[C@@]12C[C@@H]3C[C@H]([C@@H](C)O)[C@@H]1N(CCc1c2[nH]c2cc(OC)ccc12)C3 | > 25 µg/mL | > 25 µg/mL |
| COC(=O)[C@]12C[C@H]3CC4[C@H](C)OCN(CCc5c1n(c1ccccc51)C3O)[C@@H]42 (some centres not stated) | 25 µg/mL (≈ 65.4 µM) | 4 µg/mL (≈ 10.5 µM) |
| COC(=O)[C@]12C[C@H]3CC4[C@H](C)OCN(CCc5c1n(c1cc(OC)ccc51)C3=O)[C@@H]42 (some centres not stated) | > 25 µg/mL | > 25 µg/mL |
| COC(=O)N1c2ccccc2C23CCN4CCCC5(CCC12[C@](O)(C(=O)OC)C5)[C@H]43 (some centres not stated) | > 25 µg/mL | 0.64 µg/mL (≈ 1.55 µM) |
| C[C@H](O)[C@H]1C[C@H]2C[C@H]3c4[nH]c5ccccc5c4CCN(C2)[C@@H]13 | 16.1 µg/mL (≈ 54.3 µM) | 7.8 µg/mL (≈ 26.3 µM) |
| CCC1C[C@H]2C[C@@]3(C(=O)OC)c4[nH]c5ccccc5c4CCN(C2=O)[C@@H]13 (some centres not stated) | > 25 µg/mL | > 25 µg/mL |
| COC(=O)[C@@]12C[C@@H]3C[C@@H]([C@H](C)O)[C@@H]1NCCc1c2n(c2cc(OC)ccc12)[C@H]3O | > 25 µg/mL | > 25 µg/mL |
| CCOC1[C@H]2C[C@H]([C@@H](C)O)[C@@H]3N1CCc1c([nH]c4ccccc14)[C@]3(C(=O)OC)C2 (some centres not stated) | > 25 µg/mL | > 25 µg/mL |
| COC(=O)[C@@]12C[C@H]3C[C@@H](C(C)=O)[C@@H]1NCCc1c2n(c2ccccc12)C3O (some centres not stated) | 25 µg/mL (≈ 67.9 µM) | 2 µg/mL (≈ 5.43 µM) |
| CC[C@H]1C[C@H]2C[C@@]3(C(=O)OC)c4[nH]c5ccccc5c4CCN(C2C#N)[C@@H]13 (some centres not stated) | 2.2 µg/mL (≈ 6.05 µM) | 1.4 µg/mL (≈ 3.85 µM) |
| COC(=O)[C@@]12C[C@@H]3C[C@H]([C@H](C)O)[C@@H]1N(CCc1c2[nH]c2ccccc12)C3 | > 25 µg/mL | 8.5 µg/mL (≈ 24 µM) |
| CC[C@H]1C[C@H]2C[C@@]3(C(=O)OC)c4[nH]c5cc(OC)ccc5c4CCN(C2C#N)[C@@H]13 (some centres not stated) | 1.9 µg/mL (≈ 4.83 µM) | 1.1 µg/mL (≈ 2.8 µM) |
| CC[C@H]1C[C@@H]2C[C@@]3(C(=O)OC)c4c(c5ccccc5n4C2O)CCN[C@@H]13 (some centres not stated) | 3.5 µg/mL (≈ 9.87 µM) | 2.5 µg/mL (≈ 7.05 µM) |
| COC(=O)[C@@]12C[C@@H]3C[C@H]([C@@H](C)O)[C@@H]1N(CCc1c2[nH]c2ccccc12)C3=O | > 25 µg/mL | > 25 µg/mL |
| CC[C@H]1C[C@H](CO)C[C@@]2(C(=O)OC)c3[nH]c4ccccc4c3CCN[C@@H]12 | > 25 µg/mL | > 25 µg/mL |
| COC(=O)[C@@]12C[C@@H]3C[C@H](C(C)(O)O)[C@@H]1N(CCc1c2[nH]c2cc(OC)ccc12)C3 | > 25 µg/mL | 14.5 µg/mL (≈ 36.2 µM) |
| CCOC1[C@H]2C[C@H](CC)[C@@H]3N1CCc1c([nH]c4ccccc14)[C@]3(C(=O)OC)C2 (some centres not stated) | > 25 µg/mL | 13 µg/mL (≈ 34 µM) |
| CC[C@H]1C[C@@H]2CN3CCc4c([nH]c5ccccc45)C(C)(C2)[C@H]13 | > 25 µg/mL | > 25 µg/mL |
| CC[C@H]1C[C@@H]2CN3CC[C@]4(O)C(=Nc5ccccc54)[C@](C(=O)OC)(C2)[C@H]13 [CORONARIDINE HYDROXYINDOLENINE] | > 25 µg/mL | > 25 µg/mL |
| CC[C@H]1C[C@@H]2CN3CCc4c([nH]c5ccccc45)[C@](C(=O)OC)(C2)[C@H]13 [CORONARIDINE] | 11.5 µg/mL (≈ 34 µM) | 2.6 µg/mL (≈ 7.68 µM) |
| CC[C@H]1C[C@@H]2CN3CCc4c([nH]c5cc(OC)ccc45)[C@](C(=O)OC)(C2)[C@H]13 [ISOVOACANGINE] | > 25 µg/mL | > 25 µg/mL |
| COC(=O)[C@@]12C[C@@H]3C[C@H]([C@H](C)O)[C@@H]1N(CCc1c2[nH]c2cc(OC)ccc12)C3 [ISOVOACRISTINE] | > 25 µg/mL | 18.8 µg/mL (≈ 48.9 µM) |
| CC[C@H]1C[C@@H]2CN3CCc4c([nH]c5ccc(OC)cc45)[C@](C(=O)OC)(C2)[C@H]13 [VOACANGINE] | > 25 µg/mL | > 25 µg/mL |
